Source: ChEMBL document CHEMBL2040759, “Design, synthesis and anticancer activity of nitric oxide donating/chalcone hybrids” (2012)

Legend:
Type in all cases: functional
CCRF-CEM = assay: Growth inhibition of human CCRF-CEM cells after 48 hrs by SRB assay
[1] = Growth inhibition of human RPMI18226 cells after 48 hrs by SRB assay; settings: RPMI18226, 48 h
A549 = assay: Growth inhibition of human A549/ATCC cells after 48 hrs by SRB assay; settings: A549, 48 h
EKVX = assay: Growth inhibition of human EKVX cells after 48 hrs by SRB assay
HOP-92 = assay: Growth inhibition of human HOP92 cells after 48 hrs by SRB assay; settings: HOP-92, 48 h
NCI-H226 = assay: Growth inhibition of human NCI-H226 cells after 48 hrs by SRB assay; settings: NCI-H226, 48 h
NCI-H322M = assay: Growth inhibition of human NCI-H322M cells after 48 hrs by SRB assay
NCI-H460 = assay: Growth inhibition of human NCI-H460 cells after 48 hrs by SRB assay; settings: NCI-H460, 48 h
HCT-116 = assay: Growth inhibition of human HCT116 cells after 48 hrs by SRB assay; settings: HCT-116, 48 h
HCT-15 = assay: Growth inhibition of human HCT15 cells after 48 hrs by SRB assay; settings: HCT-15, 48 h
HT-29 = assay: Growth inhibition of human HT-29 cells after 48 hrs by SRB assay; settings: HT-29, 48 h
SW-620 = assay: Growth inhibition of human SW620 cells after 48 hrs by SRB assay; settings: SW-620, 48 h
SF-295 = assay: Growth inhibition of human SF295 cells after 48 hrs by SRB assay; settings: SF-295, 48 h
SNB-19 = assay: Growth inhibition of human SNB19 cells after 48 hrs by SRB assay; settings: SNB-19, 48 h
Malme-3M = assay: Growth inhibition of human MALME-3M cells after 48 hrs by SRB assay
M14 = assay: Growth inhibition of human M14 cells after 48 hrs by SRB assay; settings: M14, 48 h
SK-MEL-28 = assay: Growth inhibition of human SK-MEL-28 cells after 48 hrs by SRB assay; settings: SK-MEL-28, 48 h
SK-MEL-5 = assay: Growth inhibition of human SK-MEL-5 cells after 48 hrs by SRB assay; settings: SK-MEL-5, 48 h
UACC-257 = assay: Growth inhibition of human UACC257 cells after 48 hrs by SRB assay; settings: UACC-257, 48 h
OVCAR-3 = assay: Growth inhibition of human OVCAR3 cells after 48 hrs by SRB assay; settings: OVCAR-3, 48 h
OVCAR-5 = assay: Growth inhibition of human OVCAR5 cells after 48 hrs by SRB assay; settings: OVCAR-5, 48 h
OVCAR-8 = assay: Growth inhibition of human OVCAR8 cells after 48 hrs by SRB assay; settings: OVCAR-8, 48 h
[2] = Growth inhibition of human NCI-ADR-RES cells after 48 hrs by SRB assay
ACHN = assay: Growth inhibition of human ACHN cells after 48 hrs by SRB assay
CAKI-1 = assay: Growth inhibition of human Caki1 cells after 48 hrs by SRB assay; settings: CAKI-1, 48 h
RXF 393 = assay: Growth inhibition of human RXF393 cells after 48 hrs by SRB assay; settings: RXF 393, 48 h
UO-31 = assay: Growth inhibition of human UO31 cells after 48 hrs by SRB assay; settings: UO-31, 48 h
PC-3 = assay: Growth inhibition of human PC3 cells after 48 hrs by SRB assay; settings: PC-3, 48 h
MCF7 = assay: Growth inhibition of human MCF7 cells after 48 hrs by SRB assay; settings: MCF7, 48 h
[3] = Growth inhibition of human Hs 578T cells after 48 hrs by SRB assay
MDA-MB-468 = assay: Growth inhibition of human MDA-MB-468 cells after 48 hrs by SRB assay; settings: MDA-MB-468, 48 h
SF-539 = assay: Growth inhibition of human SF539 cells after 48 hrs by SRB assay; settings: SF-539, 48 h
K562 = assay: Growth inhibition of human K562 cells assessed as cell growth at 10^-5 M after 48 hrs by SRB assay; settings: K562, 48 h, read-out: Activity
MOLT-4 = assay: Growth inhibition of human MOLT4 cells assessed as cell growth at 10^-5 M after 48 hrs by SRB assay; settings: MOLT-4, 48 h, read-out: Activity
[4] = read-out: LC50 (the source's name)

## O=C(CO[N+](=O)[O-])Nc1ccc(C(=O)/C=C/c2ccc(Cl)cc2)cc1
CCRF-CEM
  GI50: 2.73 µM
  TGI: 16.5 µM
CCRF-CEM; [4]
  CC50: > 100 µM
[1]
  GI50: 1.41 µM
  TGI: 8.36 µM
[1]; [4]
  CC50: > 100 µM
A549
  GI50: 5.71 µM
  TGI: 20.6 µM
A549; [4]
  CC50: 57.9 µM
EKVX
  GI50: 15 µM
  TGI: 74.6 µM
EKVX; [4]
  CC50: > 100 µM
HOP-92
  GI50: 2.95 µM
  TGI: 15.2 µM
HOP-92; [4]
  CC50: 53.2 µM
NCI-H226
  GI50: 5.15 µM
  TGI: 29 µM
NCI-H226; [4]
  CC50: > 100 µM
NCI-H322M
  GI50: 10.3 µM
  TGI: 22.6 µM
NCI-H322M; [4]
  CC50: 49.6 µM
NCI-H460
  GI50: 12.7 µM
  TGI: 54.9 µM
NCI-H460; [4]
  CC50: > 100 µM
HCT-116
  GI50: 0.3 µM
  TGI: 1.09 µM
HCT-116; [4]
  CC50: 3.55 µM
HCT-15
  GI50: 2.03 µM
  TGI: 6.53 µM
HCT-15; [4]
  CC50: 59.7 µM
HT-29
  GI50: 2.36 µM
  TGI: 6.36 µM
HT-29; [4]
  CC50: > 100 µM
SW-620
  GI50: 1.44 µM
  TGI: 2.88 µM
SW-620; [4]
  CC50: 5.77 µM
SF-295
  GI50: 5.82 µM
  TGI: 29.2 µM
SF-295; [4]
  CC50: > 100 µM
SNB-19
  GI50: 4.11 µM
  TGI: 18.4 µM
SNB-19; [4]
  CC50: 64 µM
Malme-3M
  GI50: 2.13 µM
  TGI: 6.61 µM
Malme-3M; [4]
  CC50: 76.2 µM
M14
  GI50: 2.05 µM
  TGI: 4.96 µM
M14; [4]
  CC50: 17.9 µM
SK-MEL-28
  GI50: 4.96 µM
  TGI: 18.1 µM
SK-MEL-28; [4]
  CC50: 49.5 µM
SK-MEL-5
  GI50: 4.23 µM
  TGI: 15.4 µM
SK-MEL-5; [4]
  CC50: 39.8 µM
UACC-257
  GI50: 4.33 µM
  TGI: 15.9 µM
UACC-257; [4]
  CC50: 40.7 µM
OVCAR-3
  GI50: 2.22 µM
  TGI: 6.55 µM
OVCAR-3; [4]
  CC50: 23.9 µM
OVCAR-5
  GI50: 14.8 µM
  TGI: 36 µM
OVCAR-5; [4]
  CC50: 87.8 µM
OVCAR-8
  GI50: 3.24 µM
  TGI: 14 µM
OVCAR-8; [4]
  CC50: 63 µM
[2]
  GI50: 3.87 µM
  TGI: > 100 µM
[2]; [4]
  CC50: > 100 µM
ACHN
  GI50: 3.3 µM
  TGI: 17 µM
ACHN; [4]
  CC50: > 100 µM
CAKI-1
  GI50: 11.8 µM
  TGI: 54.5 µM
CAKI-1; [4]
  CC50: > 100 µM
RXF 393
  GI50: 4.82 µM
  TGI: 17.8 µM
RXF 393; [4]
  CC50: 48.5 µM
UO-31
  GI50: 1.52 µM
  TGI: 12.1 µM
UO-31; [4]
  CC50: 38.5 µM
PC-3
  GI50: 2.74 µM
  TGI: 14.8 µM
PC-3; [4]
  CC50: 72.9 µM
MCF7
  GI50: 0.67 µM
  TGI: 6.44 µM
MCF7; [4]
  CC50: > 100 µM
[3]
  GI50: 2.85 µM
  TGI: 14.2 µM
[3]; [4]
  CC50: > 100 µM
MDA-MB-468
  GI50: 2.06 µM
  TGI: 5.07 µM
MDA-MB-468; [4]
  CC50: 17.1 µM
SF-539
  GI50: 2.52 µM
  TGI: 8.82 µM
SF-539; [4]
  CC50: 42.9 µM

## O=C(CO[N+](=O)[O-])Nc1ccc(C(=O)/C=C/c2ccc3c(c2)OCO3)cc1
K562
  growth at 10 µM: 59.1%
MOLT-4
  growth at 10 µM: 99.7%
